“And” between values parts separate entries of the source, which are not always exact repeats. Equal values may be shown once. Read-outs that look alike come from different tables or passages of the source.
How the values were obtained:
EcoFepA-FM = biological target: T1, EcoFepA-FM (Escherichia coli, UniProt P05825, A720C); assay: Fluorescence quenching binding of ferric catecholates to E. coli OKN13/pEcoFepA-FM; settings: summary of Table 2 for both KpnFepA-FM and EcoFepA-FM fluorescent sensors
T1 construct: expressed in transfected cells; host or cells: E. coli OKN13 (ΔtonB, ΔfepA), low-copy plasmid pHSG575 derivative
From the text: (§1) Affinity determinations by spectroscopic analyses The analytical capabilities of the fluorescence spectroscopic determinations stood out when we compared the recognition of FeEnt and its glucosylated form, FeGEnt (also known as ferric salmochelin), by EcoFepA and KpnFepA. The ability of Gram (−) pathogens, including K. pneumoniae, to glucosylate enterobactin and transport FeGEnt enhances their invasiveness, in part because glucosylation impairs recognition of the iron complex by lipocalins. Additionally, whereas E. coli K12 contains a single chromosomal fepA locus that encodes its FeEnt transporter, pathogenic K. pneumoniae contain at least three fepA orthologs (chromosomal loci 1658, 4984; plasmid PII locus 0027). IroN of Salmonella typhimurium has a role in FeGEnt uptake; its closest ortholog in K. pneumoniae is plasmid-mediated fepA0027. […]
(§2) Fluorescence modifications of Cys-mutant proteins. […]
(§3) Fluorescence spectroscopy. We observed fluorophore-labeled cells in an SLM AMINCO 8100 fluorescence spectrometer, upgraded with an OLIS operating system and software (OLIS SpectralWorks, OLIS Inc., Bogart, GA), to control its shutters, polarizers and data collection. We also utilized an OLIS Clarity fluorescence spectrometer for fluorescence assays of ferric catecholate binding.

EcoFepA = biological target: T2, EcoFepA (Escherichia coli, UniProt P05825); settings: read-out: Kd, previous determinations; cited from earlier work
T2 construct: expressed in transfected cells; host or cells: E. coli OKN3 (ΔfepA), plasmid pITS23 (pHSG575, ecofepA+)

[1] = system: chromosomally expressed FepA in E. coli; settings: cited from earlier work
K. pneumoniae Kp52.145 = assay: FD sensor assay of FeEnt uptake rate by test strain (sensor OKN13/pEcoFepA-FM); format: cell-based
Protocol: FIG. 7. Uptake rates from FD assays. At t=60 s we added varying concentrations of FeEnt [(0.5 nM (green); 1 nM (yellow); 5 nM (orange); 10 nM (red)] to sensor strain OKN13/pEcoFepA-FM in the presence of test strain K. pneumoniae isolate Kp52.145. 10 nM FeEnt gave maximal quenching. For 1 and 5 nM FeEnt, at half-saturation (blue dashed line) we determined the slope of the time course (black dashed line) and the elapsed time (dashed red line). Either parameter estimated the transport rate of the test strain (see text).
Transport rates from spectroscopic analyses. The rate of fluorescence recovery in the spectroscopic system correlates to the rate of ligand depletion by bacterial transport, and comparisons of test strains in universal FD uptake assays reiterated this point. The various ESKAPE bacteria conferred fluorescence recovery at different rates (FIG. 3B). FeEnt binding at 100 s quenched the fluorescence of the FD sensor strain, E. coli OKN13/pEcoFepA-FM. […] But, the fluorescence of the E. coli strain reflected FeEnt uptake by other bacteria in the same solution: as they decreased [FeEnt] by cellular transport the intensity of OKN13/pEcoFepA-FM returned to initial levels (as described in FIG. 1B). The assay monitored FeEnt uptake by E. coli expressing chromosomal (Eco; cyan) or plasmid-mediated (Eco/pfepA+; blue) FepA, and ESKAPE species K. pneumoniae (Kpn; red), A. baumannii (Aba; gold), P. aeruginosa (Pae; green), E. cloacae (Ecl; magenta). […]
Species-specific fluorescence assay of FeEnt uptake: KpnFepA-FM. […] For species-specific ferric siderophore transport assays of Gram (−) bacteria we added an iron complex to 2×10^7 labeled cells in a quartz cuvette (final volume, 2 mL) with stirring at 37° C., and monitored the time course of fluorescence emissions at 520 nm. […] After addition of the ferric siderophore, we monitored the time-course of fluorescence emissions at 520 nm for 15-30 minutes, with stirring. […]

LmoHbp2_S154C-CPM = assay: Hemin titration of purified LmoHbp2-CPM, fluorescence quenching; format: binding, Listeria monocytogenes; settings: purified LmoHbp2-CPM 30 nM, 1-255 nM hemin, triplicate
Protocol: We substituted Cys for residue S154 in NEAT1 of LmoHbp2, expressed and purified the binding protein, and covalently modified it with coumarin maleimide (CPM). Introduction of Cys in NEAT-1 of LmoHbp2 allowed its modification by extrinsic fluorophores, transforming the purified binding protein into a sensitive sensor whose emissions inversely related to [Hn]. […] The experiment was performed in triplicate; the mean values, with standard deviations, are shown. […] When we mixed Hbp2-CPM with heterologous bacteria in solution, it reflected their hemin uptake. Addition of hemin at 300 s quenched LmoHbp2-CPM emissions, but fluorescence rebounded as bacteria {L. monocytogenes (Lmo; blue), B. subtilis (Bsu; gold), S. aureus (Sau; red), V. cholerae (Vch; green)} transported the porphyrin and depleted it from solution. […]
For fluorescence spectroscopic determinations of Gram (+) bacterial heme acquisition we used the FD sensor LmoHbp2_S154C-CPM. […] For measurements of Hn uptake by heterologous bacteria we suspended the LmoHbp2_S154C-CPM sensor protein at 30 nM in PBS+0.2% glucose in a 2 mL cuvette, added Hn to 15 nM after 300 s, and then added iron-starved bacterial cells at 600 s, to a final concentration of 5×10^7/mL, and monitored fluorescence for 2 h.

LmoHbp2 [2] = settings: read-out: Kd, isocalorimetric; cited from earlier work
LmoHbp2 [3] = settings: read-out: Kd, radioisotopic; cited from earlier work
[4] = system: KpnFepA-FM (KpnFepA0027_T210C); assay: Fluorescence quenching binding of ferric catecholates to E. coli OKN13/pKpnFepA-FM; set-up: species or system K. pneumoniae; settings: adsorption to KpnFepA
From the text: as §1, §2, §3

T1 sequence (P05825 23-746 A720C): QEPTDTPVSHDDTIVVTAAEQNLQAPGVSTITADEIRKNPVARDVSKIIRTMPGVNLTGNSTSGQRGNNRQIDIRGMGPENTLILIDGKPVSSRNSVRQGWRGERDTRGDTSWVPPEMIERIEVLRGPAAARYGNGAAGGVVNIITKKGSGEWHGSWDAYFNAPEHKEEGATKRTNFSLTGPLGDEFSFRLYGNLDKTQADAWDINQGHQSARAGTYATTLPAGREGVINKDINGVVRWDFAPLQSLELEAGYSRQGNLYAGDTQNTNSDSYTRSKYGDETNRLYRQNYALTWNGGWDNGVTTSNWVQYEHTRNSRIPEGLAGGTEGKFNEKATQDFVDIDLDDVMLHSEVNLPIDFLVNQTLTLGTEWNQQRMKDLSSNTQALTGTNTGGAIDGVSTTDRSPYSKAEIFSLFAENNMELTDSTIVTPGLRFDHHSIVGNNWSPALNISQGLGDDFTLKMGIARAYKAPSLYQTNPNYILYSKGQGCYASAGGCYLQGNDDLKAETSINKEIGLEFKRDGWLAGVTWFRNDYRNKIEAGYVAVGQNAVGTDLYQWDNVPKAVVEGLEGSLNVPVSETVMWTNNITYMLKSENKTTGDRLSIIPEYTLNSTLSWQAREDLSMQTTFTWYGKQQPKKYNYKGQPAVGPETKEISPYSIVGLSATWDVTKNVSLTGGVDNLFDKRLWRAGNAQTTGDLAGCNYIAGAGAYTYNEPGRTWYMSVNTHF
T2 sequence (P05825 23-746): as the sequence (P05825 23-746 A720C) above, with C698A counted along it

Compound | Kd (EcoFepA-FM) | Kd (EcoFepA) [nM] | Vmax [1] | time required to deplete 5 nM FeEnt to 0.38 nM (half-saturation) (K. pneumoniae Kp52.145; 10^7 cells/mL K. pneumoniae Kp52.145) [s] | mean uptake rate over the first 520 s (K. pneumoniae Kp52.145; 10^7 cells/mL K. pneumoniae Kp52.145, 5 nM FeEnt) [pMol/10^9 cells/min] | Vmax (K. pneumoniae Kp52.145; K. pneumoniae Kp52.145, mean rate ÷ 0.8) | Kd (LmoHbp2_S154C-CPM) [nM] | Kd (LmoHbp2 [2]) [nM] | Kd (LmoHbp2 [3]) [nM] | fold lower affinity than FeEnt [4] [fold]
O=C(N[C@H]1COC(=O)[C@@H](NC(=O)c2cccc([O-])c2[O-])COC(=O)[C@@H](NC(=O)c2cccc([O-])c2[O-])COC1=O)c1cccc([O-])c1[O-].[Fe+3] [FeEnt, ferric enterobactin] | ~0.38 nM and 0.4 nM | 0.2 to 0.5 | 50-100 pMol/min/10^9 cells | 520 | 53 | ≈ 66 pMol/10^9 cells/min |  |  |  | 
hemin |  |  |  |  |  |  | 12 ± 3.1 | 25 to 48 | 12 | 
O=C(N[C@H]1COC(=O)[C@@H](NC(=O)c2cc([C@@H]3O[C@H](CO)[C@@H](O)[C@H](O)[C@H]3O)cc(O)c2O)COC(=O)[C@@H](NC(=O)c2cc([C@@H]3O[C@H](CO)[C@@H](O)[C@H](O)[C@H]3O)cc(O)c2O)COC1=O)c1cccc(O)c1O.[Fe+3] [FeGEnt, ferric salmochelin] | 6 to 280 nM |  |  |  |  |  |  |  |  | 20

From patent US12130282B2, “Universal fluorescence assay of high affinity ligand transport” (priority 2018, dated 2024)
